Patent publication US20150105252A1, “SUBSTITUTED PYRAZOLES AS HERBICIDES” (E I DU PONT DE NEMOURS AND COMPANY, priority 2013, published 2015)

Legend:
barnyardgrass [1] = assay: Test B flood; format: in vivo, Echinochloa crus-galli; details: 250 g ai/ha, visual rating on 0 to 100 scale (0 no effect, 100 complete control), 13 to 15 days
How it was run: (§1)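 Plants were grown to the 2-leaf stage, then pots were flooded to 3 cm above the soil and compounds were applied directly into the paddy water. Water depth was held for the whole test; after 13 to 15 days in a greenhouse, injury was visually rated against untreated controls (0 = no effect, 100 = complete control).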

barnyardgrass [2] = assay: Test A preemergence; format: in vivo, Echinochloa crus-galli; details: preemergence
How it was run: (§2)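 Scoring was visual, on a scale where 100 means complete control and 0 means no effect, comparing treated with untreated plants around 10 days post-application. Compounds in surfactant-containing non-phytotoxic solvent were sprayed onto soil preemergence or onto one- to two-leaf seedlings (2–10 cm) postemergence.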

barnyardgrass [3] = assay: Test C flooded paddy test; format: in vivo, Echinochloa crus-galli; details: Flood
How it was run: (§3)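 In-water treatment: compound dosed into 3 cm flood over soil, water level unchanged throughout. Controls run alongside; visual assessment at day 13–15.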

corn [4] = assay: Test A preemergence; format: in vivo, Zea mays; details: preemergence
How it was run: as §2

ducksalad [5] = assay: Test C flooded paddy test; format: in vivo, Heteranthera limosa; details: Flood
How it was run: as §3

corn [6] = assay: Test A postemergence; format: in vivo, Zea mays
How it was run: as §2

ducksalad [7] = assay: Test B flood; format: in vivo, Heteranthera limosa; details: 250 g ai/ha, visual rating on 0 to 100 scale (0 no effect, 100 complete control), 13 to 15 days
How it was run: as §1

velvetleaf [8] = assay: Test A preemergence; format: in vivo, Abutilon theophrasti; details: preemergence
How it was run: as §2

crabgrass, large [9] = assay: Test A postemergence; format: in vivo, Digitaria sanguinalis
How it was run: as §2

wheat [10] = assay: Test A preemergence; format: in vivo, Triticum aestivum; details: preemergence
How it was run: as §2

foxtail, giant [11] = assay: Test A postemergence; format: in vivo, Setaria faberii
How it was run: as §2

sedge, umbrella [12] = assay: Test C flooded paddy test; format: in vivo, Cyperus difformis; details: Flood
How it was run: as §3

pigweed [13] = assay: Test A postemergence; format: in vivo, Amaranthus retroflexus
How it was run: as §2

rice [14] = assay: Test B flood; format: in vivo, Oryza sativa; details: 250 g ai/ha, visual rating on 0 to 100 scale (0 no effect, 100 complete control), 13 to 15 days
How it was run: as §1

wheat [15] = assay: Test A postemergence; format: in vivo, Triticum aestivum
How it was run: as §2

foxtail, giant [16] = assay: Test A preemergence; format: in vivo, Setaria faberii; details: preemergence
How it was run: as §2

velvetleaf [17] = assay: Test A postemergence; format: in vivo, Abutilon theophrasti
How it was run: as §2

morningglory [18] = assay: Test A postemergence; format: in vivo, Ipomoea spp.
How it was run: as §2

crabgrass, large [19] = assay: Test A preemergence; format: in vivo, Digitaria sanguinalis; details: preemergence
How it was run: as §2

rice [20] = assay: Test C flooded paddy test; format: in vivo, Oryza sativa; details: Flood
How it was run: as §3

sedge, umbrella [21] = assay: Test B flood; format: in vivo, Cyperus difformis; details: 250 g ai/ha, visual rating on 0 to 100 scale (0 no effect, 100 complete control), 13 to 15 days
How it was run: as §1

barnyardgrass [22] = assay: Test A postemergence; format: in vivo, Echinochloa crus-galli
How it was run: as §2

pigweed [23] = assay: Test A preemergence; format: in vivo, Amaranthus retroflexus; details: preemergence
How it was run: as §2

morningglory [24] = assay: Test A preemergence; format: in vivo, Ipomoea spp.; details: preemergence
How it was run: as §2

[25] = 125 g ai/ha, visual injury, 0 to 100 scale, approx. 10 days
[26] = 500 g ai/ha, visual injury after approx. 10 days, 0 to 100 scale (0 no effect, 100 complete control)
[27] = 31 g ai/ha, scale 0 to 100 (0 no effect, 100 complete control)
[28] = 62 g ai/ha, scale 0 to 100 (0 no effect, 100 complete control)
[29] = Postemergence, 500 g ai/ha, 0 to 100 scale (0 no effect, 100 complete control)
[30] = postemergence, 125 g ai/ha, about 10 days, visual rating on 0 to 100 scale (0 no effect, 100 complete control)
[31] = 125 g ai/ha, visual injury approx. 10 days after treatment
[32] = Postemergence, 125 g ai/ha, 0 to 100 scale, 0 no effect, 100 complete control

CCCCNC(=O)c1cc(CC)n(Cc2ccnc(C(F)(F)F)c2)n1 [Compound 141]
95: Plant response rating, Ducksalad (ducksalad [5]; 125 g ai/ha, scale 0 to 100) | Plant response rating, Sedge, Umbrella (sedge, umbrella [12]; 125 g ai/ha, scale 0 to 100) | Plant response rating, Sedge, Umbrella (sedge, umbrella [21])
30: Wheat plant response rating (wheat [10]; [25]) | Plant response rating, Sedge, Umbrella (sedge, umbrella [12]; [27]) | Wheat plant response rating (wheat [15]; [30]) | Velvetleaf plant response rating (velvetleaf [17]; [30])
20: Plant response rating, Barnyardgrass (barnyardgrass [3]; 125 g ai/ha, scale 0 to 100) | Plant response rating, Rice (rice [14]) | Plant response rating, Rice (rice [20]; 125 g ai/ha, scale 0 to 100) | Plant response rating, Rice (rice [20]; 250 g ai/ha, scale 0 to 100)
10: Velvetleaf plant response rating (velvetleaf [8]; [25])
90: Corn plant response rating (corn [6]; [29]) | Crabgrass, Large plant response rating (crabgrass, large [9]; [29]) | Wheat plant response rating (wheat [10]; [26]) | Foxtail, Giant plant response rating (foxtail, giant [11]; [29]) | Foxtail, Giant plant response rating (foxtail, giant [16]; [25]) | Morningglory plant response rating (morningglory [18]; [30])
50: Corn plant response rating (corn [6]; [30]) | Velvetleaf plant response rating (velvetleaf [8]; [26]) | Morningglory plant response rating (morningglory [24]; [25])
80: Corn plant response rating (corn [4]; [26]) | Plant response rating, Ducksalad (ducksalad [5]; [28]) | Foxtail, Giant plant response rating (foxtail, giant [11]; [30]) | Wheat plant response rating (wheat [15]; [29]) | Barnyardgrass plant response rating (barnyardgrass [22]; [29])
40: Corn plant response rating (corn [4]; [25]) | Plant response rating, Ducksalad (ducksalad [5]; [27]) | Barnyardgrass plant response rating (barnyardgrass [22]; [30])
100: Barnyardgrass plant response rating (barnyardgrass [2]; [26]) | Plant response rating, Ducksalad (ducksalad [5]; 250 g ai/ha, scale 0 to 100) | Plant response rating, Ducksalad (ducksalad [7]) | Plant response rating, Sedge, Umbrella (sedge, umbrella [12]; 250 g ai/ha, scale 0 to 100) | Pigweed plant response rating (pigweed [13]; [29]) | Foxtail, Giant plant response rating (foxtail, giant [16]; [26]) | Velvetleaf plant response rating (velvetleaf [17]; [29]) | Morningglory plant response rating (morningglory [18]; [29]) | Crabgrass, Large plant response rating (crabgrass, large [19]; [25]) | Crabgrass, Large plant response rating (crabgrass, large [19]; [26]) | Pigweed plant response rating (pigweed [23]; [25]) | Pigweed plant response rating (pigweed [23]; [26]) | Morningglory plant response rating (morningglory [24]; [26])
0: Plant response rating, Barnyardgrass (barnyardgrass [3]; [27]) | Plant response rating, Barnyardgrass (barnyardgrass [3]; [28]) | Plant response rating, Rice (rice [20]; [27]) | Plant response rating, Rice (rice [20]; [28])
35: Plant response rating, Barnyardgrass (barnyardgrass [3]; 250 g ai/ha, scale 0 to 100)
45: Plant response rating, Barnyardgrass (barnyardgrass [1])
60: Pigweed plant response rating (pigweed [13]; [30])
70: Barnyardgrass plant response rating (barnyardgrass [2]; [25]) | Crabgrass, Large plant response rating (crabgrass, large [9]; [30]) | Plant response rating, Sedge, Umbrella (sedge, umbrella [12]; [28])

CCc1cc(C(=O)NCC(F)(F)F)nn1Cc1cc(C(F)(F)C(F)(F)F)nn1C [Compound 227]
80: Plant response rating, Barnyardgrass (barnyardgrass [1]) | Barnyardgrass plant response rating (barnyardgrass [22]; [29])
0: Corn plant response rating (0 to 100 scale) (corn [4]; [31]) | Plant response rating, Rice (rice [14])
95: Plant response rating, Sedge, Umbrella (sedge, umbrella [21])
100: Barnyardgrass plant response rating (barnyardgrass [2]; [26]) | Plant response rating, Ducksalad (ducksalad [7]) | Pigweed plant response rating (pigweed [13]; [32]) | Pigweed plant response rating (pigweed [13]; [29]) | Foxtail, Giant plant response rating (foxtail, giant [16]; [26]) | Velvetleaf plant response rating (velvetleaf [17]; [29]) | Morningglory plant response rating (morningglory [18]; [29]) | Crabgrass, Large plant response rating (0 to 100 scale) (crabgrass, large [19]; [31]) | Crabgrass, Large plant response rating (crabgrass, large [19]; [26])
60: Crabgrass, Large plant response rating (crabgrass, large [9]; [32])
30: Corn plant response rating (corn [6]; [32]) | Velvetleaf plant response rating (0 to 100 scale) (velvetleaf [8]; [31])
90: Crabgrass, Large plant response rating (crabgrass, large [9]; [29]) | Foxtail, Giant plant response rating (foxtail, giant [11]; [29]) | Pigweed plant response rating (0 to 100 scale) (pigweed [23]; [31])
50: Corn plant response rating (corn [4]; [26])
10: Wheat plant response rating (0 to 100 scale) (wheat [10]; [31]) | Morningglory plant response rating (0 to 100 scale) (morningglory [24]; [31])
40: Barnyardgrass plant response rating (0 to 100 scale, 0 is no effect, 100 is complete control) (barnyardgrass [2]; [31]) | Velvetleaf plant response rating (velvetleaf [17]; [32]) | Barnyardgrass plant response rating (barnyardgrass [22]; [32])
20: Wheat plant response rating (wheat [15]; [32])
70: Corn plant response rating (corn [6]; [29]) | Foxtail, Giant plant response rating (foxtail, giant [11]; [32]) | Wheat plant response rating (wheat [15]; [29]) | Foxtail, Giant plant response rating (0 to 100 scale) (foxtail, giant [16]; [31]) | Morningglory plant response rating (morningglory [18]; [32])
